Active and inactive are the calls of the source.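 Rule for the calls: active = IC50 below 20 µM; inactive = the rest.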 Bounds are passed on as bounds.

The target of the experiment is Apelin receptor (Homo sapiens) (UniProt P35414). Put plainly: blockers of apelin-13-driven APJ signaling – cell-based, CHO-K1 AGTRL-1, PathHunter luminescence, set 4, SAR follow-up (AID 492986). As to conditions: CHO-K1 AGTRL-1 beta-arrestin.
Chain of Apelin receptor (Homo sapiens) (P35414 whole entry, looked up): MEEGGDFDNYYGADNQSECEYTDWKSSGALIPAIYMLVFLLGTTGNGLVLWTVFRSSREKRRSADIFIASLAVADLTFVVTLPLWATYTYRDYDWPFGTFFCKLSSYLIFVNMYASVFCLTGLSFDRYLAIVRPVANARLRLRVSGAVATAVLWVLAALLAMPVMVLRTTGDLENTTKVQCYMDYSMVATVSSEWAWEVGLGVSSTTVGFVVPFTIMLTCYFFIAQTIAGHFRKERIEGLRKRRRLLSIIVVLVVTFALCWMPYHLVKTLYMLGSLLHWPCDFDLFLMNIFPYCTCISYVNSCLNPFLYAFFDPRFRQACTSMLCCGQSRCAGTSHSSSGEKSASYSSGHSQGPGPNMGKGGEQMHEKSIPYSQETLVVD
Consider `O=c1cc(CSc2ccc(F)cc2)occ1O`, for which the IC50 – broadly, the midpoint of a concentration-inhibition curve – was > 79 µM (inactive).
To `Cc1ccnc(SCc2cc(=O)c(OC(=O)c3cccc(C#N)c3)co2)n1` belongs > 79 µM (inactive); to `Cc1cc(C)nc(SCc2cc(=O)c(OS(=O)(=O)c3ccccc3)co2)n1`, > 79 µM (inactive).
On to `Cc1ccnc(SCc2cc(=O)c(NC(=O)c3ccccc3)co2)n1`, for which the IC50 is > 79 µM (inactive).
To `O=C(Oc1coc(CCl)cc1=O)c1ccc(Cl)c([N+](=O)[O-])c1` belongs > 79 µM (inactive); to `Cc1cc(C)nc(SCc2cc(=O)c(OS(=O)(=O)c3ccc([N+](=O)[O-])cc3)co2)n1`, > 79 µM (inactive).
